Results: ChEMBL document CHEMBL2169777, “Chemical modulators working at pharmacological interface of target proteins” (Bioorg Med Chem, 2012)
Each block holds one molecule with its values, some of them ahead of it.

How the values were obtained:
Beta-nerve growth factor = Beta-nerve growth factor (Homo sapiens, UniProt P01138); assay: Inhibition of NGF binding to p75NTR
[1] = Inhibition of IL2 receptor binding to IL2 alpha receptor by scintillation proximity assay

Sequence of Beta-nerve growth factor (P01138 122-241 limits assumed): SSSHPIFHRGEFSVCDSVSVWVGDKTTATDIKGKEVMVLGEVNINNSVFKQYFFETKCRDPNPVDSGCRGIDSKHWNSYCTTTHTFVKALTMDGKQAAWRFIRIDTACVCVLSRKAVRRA

IC50 (Beta-nerve growth factor): 1000 nM
SMILES: Cc1cc2nc3c(=O)[nH]c(=O)nc-3n(C)c2cc1C=O

Ki [1]: 60 nM
SMILES: CC(C)C[C@@H](NC(=N)N)C(=O)NCC(=O)N1CCC(c2cc(-c3ccc(OCc4ccc(C(=O)O)o4)c(Cl)c3Cl)nn2C)CC1

IC50 [1]: 3000 nM
SMILES: COC(=O)[C@H](Cc1ccc(C#Cc2ccccc2)cc1)NC(=O)C[C@H]1CCCN(C(=N)N)C1
